Data published in patent US20250333530A1 (Hoffmann-La Roche Inc., priority 2024, published 2025).
Entries after “also recorded” stand apart in the source; their conditions may differ.

Legend:
[1] = tested on: serum cytokines; experiment: Dexamethasone scheduling with glofitamab: serum cytokines by multiplex assay; format: in vivo, humanized BRGS-CD47 mice; details: for Serum cytokine levels 4 hours after the first glofitamab injection: glofitamab 0.15 mg/kg i.v., dexamethasone co-administered in Groups C-G (2-6 mg/kg orally)
Procedure: Group B animals (n=14) were injected intravenously with glofitamab only (0.15 mg/kg at first and 0.5 mg/kg at subsequent injections in 200 μL of histidine buffer) once weekly for 5 weeks.
Serum was prepared by centrifugation.
Serum was collected and stored at −20° C. Serum samples were diluted 1:10 and used for the analysis of different cytokines/chemokines using the Bio-Plex Pro™ Human Chemokine Panel, 40-Plex system (Catalog No. 171AK99MR2; Bio-Rad; Hercules, CA), following the manufacturer's instructions.

[2] = tested on: OCI-Ly18 tumor; experiment: Dexamethasone scheduling with glofitamab, gemcitabine and oxaliplatin: tumor growth; format: in vivo, humanized BRGS-CD47 mice
Procedure: Human OCI-Ly18 (Diffuse Large B-Cell Lymphoma; DLBCL) cells were originally obtained from ATCC and subsequently expanded and deposited in the Roche Glycart internal cell bank. Cells were cultured in RPMI medium containing 10% fetal calf serum (FCS) and 1× GLUTAMAX®. The cells were maintained at 37° C. in a water-saturated atmosphere with 5% CO2. A 50 μL cell suspension (5×10^6 OCI-Ly18 cells) mixed with 50 μL Matrigel was injected subcutaneously into the flank of anesthetized mice using a 22G to 30G needle. […] Health monitoring was performed regularly. At the appropriate time, mice were injected subcutaneously with tumor cells as described and treated with the compounds or histidine buffer (Vehicle; Group A) when tumor size reached approximately 200 mm^3 (Day 7). […] Gemcitabine and oxaliplatin were injected intraperitoneally (i.p.), glofitamab intravenously (i.v.), and dexamethasone was administered via oral gavage. Groups A-D received no dexamethasone: • Group A: vehicle (control group). • Group B: glofitamab monotherapy • Group C: gemcitabine and oxaliplatin. • Group D: glofitamab, gemcitabine and oxaliplatin. […] [table] All mice were injected with the appropriate solutions. […] Subsequent combination treatments were carried out concomitantly. To obtain the proper amount of compounds per injection volume, the stock solutions (Table 20) were diluted with histidine buffer when necessary. Tumor growth was measured three times weekly using a caliper and tumor volume was calculated as followed: The study was terminated at day 60 after a total of 7 cycles of treatment.

[3] = tested on: serum cytokines; details: day 10
Procedure: Cytokine measurement was carried out with the Luminex™ FLEXMAP 3D™ system using Bio-Plex Pro Human Cytokine Assay according to the manufacturer's instruction.

[4] = in vivo

| Serum cytokine levels 28 hours after the first glofitamab injection vs glofitamab only ([1]; 1 or 2 dexamethasone doses prior to glofitamab only (Groups C and E)) | IL-6 with dexamethasone post treatment dose ([1]; 24 hours post-glofitamab administration, 28 hours post-glofitamab time point) | Serum IFN-γ and IL-2 ([3]; Groups F and H) | Serum MCP-1 and IL-8 ([3]; Groups F and H) | CRS-related serum cytokines, such as IL-6, vs glofitamab monotherapy group ([3]; additional dexamethasone injection 24 hours post glofitamab (Groups F and H)) | Molecule | IL-6 and IL-10 levels with additional dexamethasone premedication dose ([1]; 24-hour pre-glofitamab administration) | Levels of some cytokines (e.g., GM-CSF), second dexamethasone dose prior to glofitamab vs only 1 dose ([1]; Groups D-G, 4 hours after first glofitamab injection) | Serum cytokine levels 28 hours after the first glofitamab injection ([1]; dexamethasone prior to and after glofitamab injection (Groups D and F), mainly IL-6, MIP1β, MIP1α, TNFα reduced) | Serum cytokine levels 4 hours after the first glofitamab injection [1] | Anti-tumor effect of glofitamab + gemcitabine + oxaliplatin with added dexamethasone ([2]; dexamethasone 4 mg/kg p.o., Groups E-H, correlated with frequency of dexamethasone administration) | Anti-tumor effect vs CD20-TCB and chemotherapy without dexamethasone ([2]; dexamethasone 4 mg/kg p.o., Groups G and H (most frequent injections), study termination) | Pharmacokinetics on co-administration with gemcitabine or oxaliplatin [4] | Serum cytokine levels after the second glofitamab injection ([1]; 0.5 mg/kg, much lower than after the first cycle) | Serum cytokine levels 28 hours after the first glofitamab injection ([1]; glofitamab monotherapy (Group B)) | Tumor growth (tumor volume) up to day 60 ([2]; 7 weekly cycles, glofitamab 0.15/0.5 mg/kg i.v., gemcitabine/oxaliplatin 50/3 mg/kg i.p., no dexamethasone (Groups B-D)) |
| --- | --- | --- | --- | --- | --- | --- | --- | --- | --- | --- | --- | --- | --- | --- | --- |
| No difference in cytokine levels | mitigated IL-6 at the later time point | did not show as strong a reduction | statistically reduced | significant reduction | C[C@@H]1C[C@H]2[C@@H]3CCC4=CC(=O)C=C[C@]4(C)[C@@]3(F)[C@@H](O)C[C@]2(C)[C@@]1(O)C(=O)COP(=O)(O)O [dexamethasone, Dexamethasone sodium phosphate] | reduced IL-6, and to some extent IL-10 levels, at the early time point, with no mitigation capacity at the later time point | further reduced the levels of some cytokines | effectively mitigated cytokine levels for an extended duration; also recorded: very low cytokine levels | significantly reduced cytokine levels | improvement in anti-tumor effects | statistically significant better anti-tumor effects | – | – | – | – |
| – | – | – | – | – | glofitamab: anti-CD20/anti-CD3 bispecific antibody, 2:1 configuration; CAS 2229047-91-8 | – | – | – | strong cytokine release | – | – | not affected | did not show an increase in cytokine levels | higher cytokine levels | initially elicited a robust inhibition of tumor growth, which was subsequently followed by tumor recurrence in all treated mice |
